{
  "source": "patent US20230181570A1",
  "about": "“Transdermal Formulation Containing Apomorphine” (MEDRX CO., LTD., priority 2020, published 2023)",
  "test": "Study of the solubility of apomorphine hydrochloride in various solvents",
  "note": "Structures can show the parent of a compound that is named as a salt.",
  "data": [
    {"smiles": "CN1CCc2cccc3c2[C@H]1Cc1ccc(O)c(O)c1-3", "note": "[apomorphine hydrochloride]", "values": [
      {"measurement": "solubility", "setting": "each used alone: water, 1,3-butanediol, polyethylene glycol, propylene glycol, glycerin, propylene carbonate", "value": "≤ 3", "unit": "% by weight"},
      {"measurement": "apomorphine hydrochloride solution able to be prepared", "setting": "low molecular weight polyethylene glycol combined with propylene carbonate", "value": 8, "unit": "% by weight"},
      {"measurement": "solubility in propylene carbonate", "setting": "propylene carbonate used alone", "value": 0.25, "unit": "% by weight"},
      {"measurement": "apomorphine hydrochloride solution able to be prepared", "setting": "propylene glycol and propylene carbonate, weight of propylene glycol five times or more that of propylene carbonate", "value": 10, "unit": "% by weight"}
    ]}
  ]
}
